Activity calls are given as the source filed them. The calls are words filed in the database; no cut-off is given here.
How the values were obtained:
Angiopoietin-1 receptor [1] = target: T1, Angiopoietin-1 receptor (Homo sapiens, UniProt Q02763); assay: Displacement of angiopoietin 1 from human recombinant Tie2 at 25 to 100 uM
Angiopoietin-1 receptor [2] = target: T1, Angiopoietin-1 receptor; assay: Binding affinity to human recombinant Tie2 by SPR assay
Angiopoietin-1 receptor [3] = target: T1, Angiopoietin-1 receptor; assay: Displacement of angiopoietin 2 from human recombinant Tie2 at 25 to 100 uM
Angiopoietin-1 receptor [4] = target: T1, Angiopoietin-1 receptor; assay: Displacement of angiopoietin 1 from human recombinant Tie2 at 50 to 100 uM

T1 sequence (Q02763 whole entry): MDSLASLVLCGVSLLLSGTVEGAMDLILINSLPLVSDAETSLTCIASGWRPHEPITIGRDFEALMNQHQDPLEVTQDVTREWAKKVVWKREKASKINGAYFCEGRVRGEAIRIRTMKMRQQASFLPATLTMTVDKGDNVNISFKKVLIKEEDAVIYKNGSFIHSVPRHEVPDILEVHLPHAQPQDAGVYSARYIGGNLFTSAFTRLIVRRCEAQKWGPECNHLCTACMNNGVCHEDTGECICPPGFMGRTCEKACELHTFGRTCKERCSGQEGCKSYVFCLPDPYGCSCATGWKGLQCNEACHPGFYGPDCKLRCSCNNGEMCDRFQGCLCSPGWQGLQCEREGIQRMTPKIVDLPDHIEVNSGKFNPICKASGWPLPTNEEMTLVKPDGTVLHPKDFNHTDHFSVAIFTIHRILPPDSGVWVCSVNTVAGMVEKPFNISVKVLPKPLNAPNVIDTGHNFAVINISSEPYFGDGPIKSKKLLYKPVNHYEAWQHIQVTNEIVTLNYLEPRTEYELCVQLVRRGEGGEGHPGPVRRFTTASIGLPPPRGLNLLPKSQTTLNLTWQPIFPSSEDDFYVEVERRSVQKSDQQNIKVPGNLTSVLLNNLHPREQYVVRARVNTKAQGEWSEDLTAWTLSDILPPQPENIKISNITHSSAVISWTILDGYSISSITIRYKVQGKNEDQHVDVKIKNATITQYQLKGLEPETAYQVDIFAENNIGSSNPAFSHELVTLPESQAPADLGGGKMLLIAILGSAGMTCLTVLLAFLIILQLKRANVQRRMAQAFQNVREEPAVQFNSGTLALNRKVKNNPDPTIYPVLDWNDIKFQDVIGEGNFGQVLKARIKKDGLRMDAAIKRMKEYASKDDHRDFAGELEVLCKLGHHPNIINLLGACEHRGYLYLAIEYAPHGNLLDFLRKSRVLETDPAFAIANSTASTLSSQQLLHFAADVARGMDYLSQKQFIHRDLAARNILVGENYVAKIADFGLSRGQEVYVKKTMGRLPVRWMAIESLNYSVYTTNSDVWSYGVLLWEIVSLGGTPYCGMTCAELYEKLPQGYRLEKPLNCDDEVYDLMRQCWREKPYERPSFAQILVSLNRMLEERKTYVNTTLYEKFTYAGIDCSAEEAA

| SMILES | Activity (Angiopoietin-1 receptor [1]) | Kd (Angiopoietin-1 receptor [2]) | Activity (Angiopoietin-1 receptor [3]) | Activity (Angiopoietin-1 receptor [4]) |
| --- | --- | --- | --- | --- |
| CN(C)C(=O)C(CCN1CCC(O)(c2ccc(Cl)cc2)CC1)(c1ccccc1)c1ccccc1 [LOPERAMIDE] | Active | 5.9 µM | Active | – |
| O=C(O)COCCN1CCN(C(c2ccccc2)c2ccc(Cl)cc2)CC1 (centres undefined) [CETIRIZINE] | – | 90 µM | – | Active |
| O=C(N[C@H](Cc1ccccc1F)C(=O)O)OCC1c2ccccc2-c2ccccc21 | – | 120 µM | – | Active |
| CC1(C)S[C@@H]2[C@H](NC(=O)[C@H](N)c3ccccc3)C(=O)N2[C@H]1C(=O)O [AMPICILLIN] | – | 82 µM | – | Active |

Reference: ChEMBL document CHEMBL2010691, “Discovery of loperamide as an antagonist of angiopoietin1 and angiopoietin2 by virtual screening” (Bioorg Med Chem Lett, 2012)
